Measured values: patent US7041698B2, “Hepatitis C virus inhibitors” (Bristol-Myers Squibb Company, priority 2002, dated 2006)

Molecular target: T1, HCV NS3/4A protease complex (UniProt P27958, C1454S/C1711G, species not given)
T1 construct: fused on or other part: Three-lysine solubilising tail at the C-terminus of NS4A
Assay: Recombinant HCV NS3/4A protease complex FRET peptide assay (strain not stated)
Format: biochemical
Conditions: read-out: IC50 range, HCV NS3/4A protease enzyme assay

C=CC1C[C@]1(NC(=O)[C@@H]1C[C@@H](OC(=O)Nc2ccccc2-c2ccccc2)CN1C(=O)[C@@H](NC(=O)OC(C)(C)C)C(C)(C)C)C(=O)NS(=O)(=O)C1CC1 (stereo partly drawn) [Compound 8, BocNH-P3(t-BuGly)-P2(Hyp(O—CO(NH-biphen-2-yl)))-P1(1R,2S VinylAcca)—CONHSO2Cyclopropane]
IC50: < 0.1 µM
